Laboratory results: patent publication US20260317319A1, “NOVEL ERGOLINES AND METHODS OF TREATING MOOD DISORDERS” (Gilgamesh Pharma Inc., priority 2023, published 2026)

Key:
5-HT2C receptor = target: T1, 5-HT2C receptor (Homo sapiens, UniProt P28335); assay: cell-based; conditions: agonist, Ca2+ flux, Eurofins DiscoverX protocol, max dose; read-out: 5-HT2C % Act @ Max Dose
T1 sequence (P28335 33-458): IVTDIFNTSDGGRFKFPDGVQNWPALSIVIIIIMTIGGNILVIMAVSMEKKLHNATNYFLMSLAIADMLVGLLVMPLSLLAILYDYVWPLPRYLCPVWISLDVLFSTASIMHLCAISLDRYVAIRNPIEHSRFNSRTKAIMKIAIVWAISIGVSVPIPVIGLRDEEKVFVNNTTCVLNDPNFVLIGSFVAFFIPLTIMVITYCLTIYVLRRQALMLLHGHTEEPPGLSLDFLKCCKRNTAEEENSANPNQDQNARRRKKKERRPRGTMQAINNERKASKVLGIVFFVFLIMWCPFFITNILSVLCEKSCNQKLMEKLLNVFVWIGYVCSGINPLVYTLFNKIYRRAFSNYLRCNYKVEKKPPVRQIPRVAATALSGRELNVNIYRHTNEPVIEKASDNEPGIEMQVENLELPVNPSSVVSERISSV

[1] = target: T2, Alpha1A adrenergic receptor (Homo sapiens, UniProt P35348); assay: Ca2+ flux functional assay at Alpha1A; assay type: cell-based
T2 construct: expressed in transfected cells
T2 sequence (P35348 1-466): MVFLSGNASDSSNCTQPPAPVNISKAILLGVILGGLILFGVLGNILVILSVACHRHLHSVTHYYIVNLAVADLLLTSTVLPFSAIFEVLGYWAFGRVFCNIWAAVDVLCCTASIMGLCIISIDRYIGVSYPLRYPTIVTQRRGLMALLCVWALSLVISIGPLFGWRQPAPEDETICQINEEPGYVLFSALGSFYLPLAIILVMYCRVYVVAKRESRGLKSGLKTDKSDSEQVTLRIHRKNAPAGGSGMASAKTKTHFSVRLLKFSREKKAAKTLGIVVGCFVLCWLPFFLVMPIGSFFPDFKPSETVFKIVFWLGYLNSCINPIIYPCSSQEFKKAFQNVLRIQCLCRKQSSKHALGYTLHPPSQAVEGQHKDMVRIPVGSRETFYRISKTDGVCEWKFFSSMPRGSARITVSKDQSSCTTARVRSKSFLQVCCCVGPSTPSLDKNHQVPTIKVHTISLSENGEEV

## CCN(CC)C(=O)[C@@H]1C=C2c3cccc4[nH]cc(c34)C[C@H]2N(CCCF)C1 [Compound 2, (6aR,9R)—N,N-diethyl-7-(3-fluoropropyl)-4,6,6a,7,8,9-hexahydroindolo[4,3-fg]quinoline-9-carboxamide]
5-HT2C receptor
  Emax: 105%
[1]; "higher" is compared to the N-methyl compound LSD
  maximal efficacy at Alpha1A: substantially higher maximal efficacy
[1]; agonist, Ca2+ flux, max dose, read-out: Alpha 1A % Act @ Max Dose
  Emax: 110%
